Measurements taken from the supplement of paper PMC13380429.
± gives the standard deviation of the averaged measurements.

Legend:
Conditions in all cases: 72 h
Calu-3 [1] = test: cell viability relative to DMSO; higher = less toxic
HepG2 [2] = test: as above
Caco-2 [3] = test: as above
Calu-3 [4] = test: drug sensitivity score (DSS) for viability; higher = more toxic; extreme values may be limits of the assay
HepG2 [5] = test: as above
Caco-2 [6] = test: as above
Calu-3 [7] = test: relative viability EC50 (midpoint between 100% and the lowest measured viability); higher = less toxic
HepG2 [8] = test: as above
Caco-2 [9] = test: as above
U2OS [10] = test: cell viability relative to DMSO; higher = less toxic
U2OS [11] = test: drug sensitivity score (DSS) for viability; higher = more toxic; extreme values may be limits of the assay
U2OS [12] = test: relative viability EC50 (midpoint between 100% and the lowest measured viability); higher = less toxic
Vero E6 [13] = test: cell viability relative to DMSO; higher = less toxic
Vero E6 [14] = test: drug sensitivity score (DSS) for viability; higher = more toxic; extreme values may be limits of the assay

Structure (SMILES)	cell viability (Calu-3 [1]; 1 nM) [%]	cell viability (Calu-3 [1]; 10 nM) [%]	cell viability (Calu-3 [1]; 100 nM) [%]	cell viability (Calu-3 [1]; 1000 nM) [%]	cell viability (Calu-3 [1]; 10000 nM) [%]	cell viability (HepG2 [2]; 1 nM) [%]	cell viability (HepG2 [2]; 10 nM) [%]	cell viability (HepG2 [2]; 100 nM) [%]	cell viability (HepG2 [2]; 1000 nM) [%]	cell viability (HepG2 [2]; 10000 nM) [%]	cell viability (Caco-2 [3]; 1 nM) [%]	cell viability (Caco-2 [3]; 10 nM) [%]	cell viability (Caco-2 [3]; 100 nM) [%]	cell viability (Caco-2 [3]; 1000 nM) [%]	cell viability (Caco-2 [3]; 10000 nM) [%]	drug sensitivity score (Calu-3 [4])	drug sensitivity score (HepG2 [5])	drug sensitivity score (Caco-2 [6])	relative viability EC50 (Calu-3 [7]) [µM]	relative viability EC50 (HepG2 [8]) [µM]	relative viability EC50 (Caco-2 [9]) [µM]	cell viability (U2OS [10]; 1 nM) [%]	cell viability (U2OS [10]; 10 nM) [%]	cell viability (U2OS [10]; 100 nM) [%]	cell viability (U2OS [10]; 1000 nM) [%]	cell viability (U2OS [10]; 10000 nM) [%]	drug sensitivity score (U2OS [11])	relative viability EC50 (U2OS [12]) [µM]	cell viability (Vero E6 [13]; 1 nM) [%]	cell viability (Vero E6 [13]; 100 nM) [%]	cell viability (Vero E6 [13]; 1000 nM) [%]	cell viability (Vero E6 [13]; 10000 nM) [%]	drug sensitivity score (Vero E6 [14])
O=S(=O)(c1cccc2cnccc12)N1CCNCC1 [C-1]	98.2	91.8	96.3	99.5	123	93.2	105	95	110	104	96.8	94.8	105	99.4	104	0	0	0	> 10	> 10	> 10	–	–	–	–	–	–	–	–	–	–	–	–
Clc1ccc(-c2nc3sccn3c2/C=N/OCc2ccc(Cl)c(Cl)c2)cc1 [CITCO]	92.2	88.4	93.1	93.6	92.1	97	104	104	104	97.9	107	98.5	110	94	96.5	0	0	0	> 10	> 10	> 10	96.3	98.7	99.5	97.6	94	0	> 10	–	–	–	–	–
C[C@@H](NC(=O)CCc1nc2ccccc2c(=O)[nH]1)c1ccccc1 [ME0328]	100 ± 5.4	112 ± 15	92 ± 3.1	99.7 ± 8.7	98.3 ± 3.2	98.65 ± 0.78	98.8 ± 4.7	100 ± 4.5	104 ± 1.3	–	97.8 ± 16	94 ± 1.2	98.8 ± 2	103 ± 4.3	93.7 ± 9.1	0	0	0	–	–	–	102 ± 1.1	98 ± 1.3	103 ± 1.6	95.8 ± 0.14	95.8 ± 6.4	0	–	93.6 ± 7.1	93.8 ± 6	94.2 ± 6.1	94.05 ± 0.071	0
O=C(Cc1ccccc1)Nc1nc2ccc(Cl)cc2c2nc(-c3ccco3)nn12 [MRS-1220]	104	98.2	95.3	94.1	93.5	96.5	93	93.5	95.6	105	93.7	100	99.4	94.1	101	0	0	0	> 10	> 10	> 10	98.8	101	97.2	104	96.9	0	> 10	–	–	–	–	–
